Type in all cases: cell-based
The subject of assay [1] is MRC5 cells. Description: Video analysis of cell movement and division. Here is the method: (§1) The DMS114 and MRC5 cells from Example 2 were analyzed during the 3 day treatment period with sodium perborate tetrahydrate. Roughly 20 photos/hour were taken of the cells over the 72 hour (3 day) period. The resulting 1500 were merged to create a video which was used to observe the effect of sodium perborate on movement and division of DMS114 and MRC5 cells. […] FIGS. 21A and 21B show DMS114 cells at the start and end of the 72 hour treatment period. FIGS. 22A and 22B show MRC5 cells at the start and end of the 72 hour treatment period.

In assay [2] the test system is DMS114 cells. The experiment in a line: Video analysis of cell movement and division. The following applies: 72 hour treatment. Here is the method:
as §1

For assay [3], the system named is chordoma (CH22, JHC7, UM-Chor1, MUG-Chor1, U-CH1) cells. Description: MTS cytotoxicity assay. Here is the method:
(§2) An MTS reduction (MTS (3-(4,5-dimethylthiazol-2-yl)-5-(3-carboxymethoxyphenyl)-2-(4-sulfophenyl)-2H-tetrazolium) assay) was conducted to analyze the cytotoxic effect of sodium perborate tetrahydrate on lung, chordoma and pancreatic cells and normal cells. In this method, cell viability is determined via the activity of mitochondrial dehydrogenase enzyme, which reduces the tetrazolium dye MTS to its […] formazan (absorbance maximum of 490 nm in PBS).
(§3) Cells were counted and seeded in 96-well culture dishes. […] The positive control comprised 20% Dimethyl Sulfoxide and the negative control comprised complete growth media. Seeding densities were as follows: DMS114: 20.000 cells/well; MRC5: 5.000 cells/well; CH22: 2.000 cells/well; JHC7, UM-Chor1, MUG-Chor1, UCH1 and NPH: 5.000 cells/well; PSN1: 10.000 cells/well; BxPC3 and ASPC: 7.500 cells/well. The effect of sodium perborate tetrahydrate on cell viability was measured as follows. The cell culture medium was discarded and 100 μl of MTS solution (10% glucose solution and 1% MTS-PMS solution in PBS) was added into each well. After 1 hour incubation in a humidified incubator, an absorbance reading was taken to determine mitochondrial dehydrogenase activity and cell survival was calculated relative to the negative control.
A general note: Formazan colour is commonly taken as a measure of viable cells.

Assay [4] has as its system normal cells (MRC5, NPH). Description: MTS cytotoxicity assay. Here is the method:
as §2, §3

Assay [5] deals with pancreatic cancer (PSN1, BxPC3 and ASPC) cells. Description: MTS cytotoxicity assay. Here is the method: as §2, §3
For assay [6], the system named is DMS114 cells (small cell lung cancer cells). The experiment in a line: MTS cytotoxicity assay. As to the method: as §2, §3

“Also recorded” adds a separate entry of the source. Bounds are passed on as bounds.

Consider `O.O.O.O.[Na+].[O-]B1OO1` [sodium perborate tetrahydrate], for which the “division and movement of healthy cells” value in assay [1] was “slowing cell division and movement of healthy cells to some extent; also recorded: only slowed the division and movement”. The “DMS114 cells whose movement was stopped” value in assay [2] is listed as roughly 100%. For the same compound, in assay [3], the “cell survival of chordoma cell lines” value was “effective in decreasing cell survival”. Also, the “cell survival of normal cell lines” value in assay [4] is “minimal impact on the cell survival”. Moreover, the “cell survival of pancreatic cell lines” value in assay [5] is recorded as “effective in decreasing cell survival”. The “cell survival of lung cancer cell lines” value in assay [6] is “effective in decreasing cell survival”. Also, in assay [6] (DMS114), the “EC50 (dose that kills 50% of cells)” value was 15 µg/mL. Moreover, the “time to maximum effect on DMS114 cells” value in assay [6] (FIG. 3A) was no more than 1 days. The “toxicity compared with other boron derivatives” value in assay [6] (FIGS. 23A-C, same biological model) is “significantly less toxic than boric acid and sodium pentaborate pentahydrate”.
